{"source": "ChEMBL document CHEMBL4152332", "about": "“Discovery and synthesis of novel magnolol derivatives with potent anticancer activity in non-small cell lung cancer” (Eur J Med Chem, 2018)", "key": {"NCI-H1975 [1]": {"tested_on": "NCI-H1975", "experiment": "Induction of apoptosis in human NCI-H1975 cells assessed as late apoptotic cells at 10 uM after 48 hrs by annexin V/FITC-propidium iodide staining-based flow cytometric method ( Rvb = 10.4%)", "type": "functional"}, "NCI-H441": {"tested_on": "NCI-H441", "experiment": "Antiproliferative activity against human H441 cells after 72 hrs by MTT assay", "type": "functional, cell-based", "details": "NCI-H441, 72 h"}, "Mus musculus [2]": {"tested_on": "Mus musculus", "experiment": "Toxicity in Balb/c mouse xenografted with human NCI-H1975 cells assessed as effect on liver size at 5 to 20 mg/kg, iv treated every 2 days for 9 days", "type": "organism-based", "details": "in vivo"}, "NCI-H1650": {"tested_on": "NCI-H1650", "experiment": "Antiproliferative activity against human NCI-H1650 cells after 72 hrs by MTT assay", "type": "functional, cell-based", "details": "NCI-H1650, 72 h"}, "NCI-H1975 [3]": {"tested_on": "NCI-H1975", "experiment": "Cell cycle arrest in human NCI-H1975 cells assessed as accumulation at G0/G1 phase at 10 uM after 24 hrs by propidium iodide staining-based flow cytometric analysis (reference value: 56.11%)", "type": "functional"}, "Mus musculus [4]": {"tested_on": "Mus musculus", "experiment": "Toxicity in Balb/c mouse xenografted with human NCI-H1975 cells assessed as effect on kidney size at 5 to 20 mg/kg, iv treated every 2 days for 9 days", "type": "organism-based", "details": "in vivo"}, "NCI-H1975 [5]": {"tested_on": "NCI-H1975", "experiment": "Induction of apoptosis in human NCI-H1975 cells assessed as decrease in Cdk2 level after 24 hrs by Western blot analysis", "type": "functional, cell-based"}, "NCI-H1975 [6]": {"tested_on": "NCI-H1975", "experiment": "Cell cycle arrest in human NCI-H1975 cells assessed as accumulation at G2/M phase at 20 uM after 24 hrs by propidium iodide staining-based flow cytometric analysis (reference value: 20.11%)", "type": "functional"}, "Mus musculus [7]": {"tested_on": "Mus musculus", "experiment": "Toxicity in Balb/c mouse implanted with mouse C26 cells assessed as mouse death at 100 mg/kg, po qd treated for 10 days", "type": "organism-based", "details": "in vivo, 240 h"}, "NCI-H1975 [8]": {"tested_on": "NCI-H1975", "experiment": "Cell cycle arrest in human NCI-H1975 cells assessed as accumulation at S phase at 20 uM after 24 hrs by propidium iodide staining-based flow cytometric analysis (reference value: 22.93%)", "type": "functional"}, "HCC827 [9]": {"tested_on": "HCC827", "experiment": "Antiproliferative activity against human HCC827 cells after 72 hrs by MTT assay", "type": "functional, cell-based", "details": "HCC827, 72 h"}, "NCI-H1975 [10]": {"tested_on": "NCI-H1975", "experiment": "Induction of apoptosis in human NCI-H1975 cells assessed as early apoptotic cells at 20 uM after 48 hrs by annexin V/FITC-propidium iodide staining-based flow cytometric method ( Rvb = 6.09%)", "type": "functional"}, "NCI-H1975 [11]": {"tested_on": "NCI-H1975", "experiment": "Cell cycle arrest in human NCI-H1975 cells assessed as accumulation at S phase at 10 uM after 24 hrs by propidium iodide staining-based flow cytometric analysis (reference value: 22.93%)", "type": "functional"}, "Mus musculus [12]": {"tested_on": "Mus musculus", "experiment": "Toxicity in Balb/c mouse xenografted with human NCI-H1975 cells assessed as change in body weight at 10 mg/kg, po qd treated for 18 days and measured every 2 days after compound dosing ( Rvb = 2.89%)", "type": "organism-based", "details": "in vivo"}, "NCI-H1975 [13]": {"tested_on": "NCI-H1975", "experiment": "Induction of apoptosis in human NCI-H1975 cells assessed as viable cells at 10 uM after 48 hrs by annexin V/FITC-propidium iodide staining-based flow cytometric method ( Rvb = 82.5%)", "type": "functional", "details": "NCI-H1975, 48 h, read-out: Activity"}, "Mus musculus [14]": {"tested_on": "Mus musculus", "experiment": "Toxicity in Balb/c mouse xenografted with human NCI-H1975 cells assessed as induction of vascular irritation at 5 to 20 mg/kg, iv treated every 2 days for 9 days", "type": "organism-based", "details": "in vivo"}, "HCC827 [15]": {"tested_on": "HCC827", "experiment": "Potency index, ratio of IC50 for honokiol to IC50 for test compound for antiproliferative activity against human HCC827 cells after 72 hrs by MTT assay", "type": "functional"}, "A549": {"tested_on": "A549", "experiment": "Antiproliferative activity against human A549 cells after 72 hrs by MTT assay", "type": "functional, cell-based", "details": "A549, 72 h"}, "NCI-H1975 [16]": {"tested_on": "NCI-H1975", "experiment": "Induction of apoptosis in human NCI-H1975 cells assessed as necrotic cells at 5 uM after 48 hrs by annexin V/FITC-propidium iodide staining-based flow cytometric method ( Rvb = 1.01%)", "type": "functional"}, "NCI-H1975 [17]": {"tested_on": "NCI-H1975", "experiment": "Induction of apoptosis in human NCI-H1975 cells assessed as necrotic cells at 20 uM after 48 hrs by annexin V/FITC-propidium iodide staining-based flow cytometric method ( Rvb = 1.01%)", "type": "functional"}, "NCI-H460": {"tested_on": "NCI-H460", "experiment": "Potency index, ratio of IC50 for magnolol to IC50 for test compound for antiproliferative activity against human H460 cells after 72 hrs by MTT assay", "type": "functional"}, "NCI-H1975 [18]": {"tested_on": "NCI-H1975", "experiment": "Induction of apoptosis in human NCI-H1975 cells after 48 hrs by annexin V/FITC-propidium iodide staining-based flow cytometric method", "type": "functional, cell-based"}, "NCI-H1975 [19]": {"tested_on": "NCI-H1975", "experiment": "Antitumor activity against human NCI-H1975 cells xenografted in Balb/c mouse assessed as change in tumor mass at 10 mg/kg, iv treated every 2 days for 9 days and measured every 2 days after compound dosing relative to control", "type": "functional"}, "NCI-H1975 [20]": {"tested_on": "NCI-H1975", "experiment": "Induction of apoptosis in human NCI-H1975 cells assessed as decrease in cyclin E level after 24 hrs by Western blot analysis", "type": "functional, cell-based"}, "NCI-H1975 [21]": {"tested_on": "NCI-H1975", "experiment": "Induction of apoptosis in human NCI-H1975 cells assessed as necrotic cells at 10 uM after 48 hrs by annexin V/FITC-propidium iodide staining-based flow cytometric method ( Rvb = 1.01%)", "type": "functional"}, "NCI-H1975 [22]": {"tested_on": "NCI-H1975", "experiment": "Antitumor activity against human NCI-H1975 cells xenografted in Balb/c mouse assessed as change in tumor mass at 100 mg/kg, po qd treated for 18 days and measured every 2 days after compound dosing relative to control", "type": "functional"}, "NCI-H1975 [23]": {"tested_on": "NCI-H1975", "experiment": "Antitumor activity against human NCI-H1975 cells xenografted in Balb/c mouse assessed as change in tumor mass at 30 mg/kg, po qd treated for 18 days and measured every 2 days after compound dosing relative to control", "type": "functional"}, "NCI-H1975 [24]": {"tested_on": "NCI-H1975", "experiment": "Induction of apoptosis in human NCI-H1975 cells assessed as early apoptotic cells at 5 uM after 48 hrs by annexin V/FITC-propidium iodide staining-based flow cytometric method ( Rvb = 6.09%)", "type": "functional"}, "[25]": {"experiment": "Antitumor activity against mouse C26 cells implanted in Balb/c mouse assessed as tumor growth inhibition at 100 mg/kg, po qd and measured every 2 days relative to control", "type": "functional", "details": "48 h, read-out: TGI"}, "NCI-H1975 [26]": {"tested_on": "NCI-H1975", "experiment": "Induction of apoptosis in human NCI-H1975 cells assessed as viable cells at 20 uM after 48 hrs by annexin V/FITC-propidium iodide staining-based flow cytometric method ( Rvb = 82.5%)", "type": "functional", "details": "NCI-H1975, 48 h, read-out: Activity"}, "NCI-H1975 [27]": {"tested_on": "NCI-H1975", "experiment": "Induction of apoptosis in human NCI-H1975 cells assessed as decrease in Cdk4 level after 24 hrs by Western blot analysis", "type": "functional, cell-based"}, "Mus musculus [28]": {"tested_on": "Mus musculus", "experiment": "Toxicity in Balb/c mouse xenografted with human NCI-H1975 cells assessed as change in body weight at 10 mg/kg, iv treated every 2 days for 9 days and measured every 2 days after compound dosing ( Rvb = 2.89%)", "type": "organism-based", "details": "in vivo"}, "NCI-H1975 [29]": {"tested_on": "NCI-H1975", "experiment": "Induction of apoptosis in human NCI-H1975 cells assessed as viable cells at 5 uM after 48 hrs by annexin V/FITC-propidium iodide staining-based flow cytometric method ( Rvb = 82.5%)", "type": "functional", "details": "NCI-H1975, 48 h, read-out: Activity"}, "Mus musculus [30]": {"tested_on": "Mus musculus", "experiment": "Toxicity in Balb/c mouse xenografted with human NCI-H1975 cells assessed as effect on lung size at 5 to 20 mg/kg, iv treated every 2 days for 9 days", "type": "organism-based", "details": "in vivo"}, "PC-9": {"tested_on": "PC-9", "experiment": "Antiproliferative activity against human PC9 cells after 72 hrs by MTT assay", "type": "functional, cell-based", "details": "PC-9, 72 h"}}}
{"smiles": "C=CCc1ccc(O)c(-c2cc(CC=C)cc(CN3CCC(N)CC3)c2O)c1", "values": [{"measurement": "Activity", "setting": "NCI-H1975 [1]", "value": 32.8, "unit": "%"}, {"measurement": "IC50", "setting": "NCI-H441", "value": 5.63, "unit": "µM"}, {"measurement": "Activity", "setting": "Mus musculus [2]", "value": "Non-Toxic"}, {"measurement": "IC50", "setting": "NCI-H1650", "value": 4.81, "unit": "µM"}, {"measurement": "Activity", "setting": "NCI-H1975 [3]", "value": 67.09, "unit": "%"}, {"measurement": "Activity", "setting": "Mus musculus [4]", "value": "Non-Toxic"}, {"measurement": "Activity", "setting": "NCI-H1975 [5]", "value": "Dose-dependent effect"}, {"measurement": "Activity", "setting": "NCI-H1975 [6]", "value": 6.13, "unit": "%"}, {"measurement": "Activity", "setting": "Mus musculus [7]", "value": "Non-Toxic"}, {"measurement": "Activity", "setting": "NCI-H1975 [8]", "value": 12.63, "unit": "%"}, {"measurement": "IC50", "setting": "HCC827 [9]", "value": 5.01, "unit": "µM"}, {"measurement": "Activity", "setting": "NCI-H1975 [10]", "value": 46.8, "unit": "%"}, {"measurement": "Activity", "setting": "NCI-H1975 [11]", "value": 18.57, "unit": "%"}, {"measurement": "Activity", "setting": "Mus musculus [12]", "value": 13.3, "unit": "%"}, {"measurement": "viability at 10 µM", "setting": "NCI-H1975 [13]", "value": 56.7, "unit": "%"}, {"measurement": "Activity", "setting": "Mus musculus [14]", "value": "Non-Toxic"}, {"measurement": "Ratio IC50", "setting": "HCC827 [15]", "value": 4}, {"measurement": "IC50", "setting": "A549", "value": 5.48, "unit": "µM"}, {"measurement": "Activity", "setting": "NCI-H1975 [16]", "value": 0.52, "unit": "%"}, {"measurement": "Activity", "setting": "NCI-H1975 [17]", "value": 0.35, "unit": "%"}, {"measurement": "Ratio IC50", "setting": "NCI-H460", "value": 8}, {"measurement": "Activity", "setting": "NCI-H1975 [18]", "value": "Dose-dependent effect"}, {"measurement": "Activity", "setting": "NCI-H1975 [19]", "value": 57.5, "unit": "%"}, {"measurement": "Activity", "setting": "NCI-H1975 [20]", "value": "Dose-dependent effect"}, {"measurement": "Activity", "setting": "NCI-H1975 [21]", "value": 0.4, "unit": "%"}, {"measurement": "Activity", "setting": "NCI-H1975 [22]", "value": 61.2, "unit": "%"}, {"measurement": "Activity", "setting": "NCI-H1975 [23]", "value": 59.3, "unit": "%"}, {"measurement": "Activity", "setting": "NCI-H1975 [24]", "value": 6.68, "unit": "%"}, {"measurement": "inhibition in vivo at 100 mg/kg", "setting": "[25]", "value": 47.9, "unit": "%"}, {"measurement": "viability at 20 µM", "setting": "NCI-H1975 [26]", "value": 3.75, "unit": "%"}, {"measurement": "Activity", "setting": "NCI-H1975 [27]", "value": "Dose-dependent effect"}, {"measurement": "Activity", "setting": "Mus musculus [28]", "value": 8.89, "unit": "%"}, {"measurement": "viability at 5 µM", "setting": "NCI-H1975 [29]", "value": 66.5, "unit": "%"}, {"measurement": "Activity", "setting": "Mus musculus [30]", "value": "Non-Toxic"}, {"measurement": "IC50", "setting": "PC-9", "value": 12.5, "unit": "µM"}]}
